Columns and labels:
U87 cell xenograft = system: U87 cell xenograft; design: method as in PMID 26636389; conditions: U87 cell xenograft model; cited from earlier work
[1] = system: orthotopic intracranial GL261 cell tumours; design: method as in PMID 26636389; conditions: cited from earlier work
C6 orthotopic glioma = system: C6 orthotopic glioma; design: method as in PMID 29993291; conditions: with TMZ; C6 orthotopic rat model of glioma; cited from earlier work
[2] = system: subcutaneous GL2612 tumour; design: method as in PMID 29993291; conditions: with TMZ; mice; cited from earlier work
[3] = Body weight in orthotopic glioblastoma mice; type: in vivo, C57BL/6J mice; conditions: repeated treatment; AT-0174 […] mg/kg PO; TMZ 8 mg/kg IP; compared to vehicle
Description: Starting from day 6 after tumour cell inoculation, all mice were monitored in vivo until Day 55 for tumour growth (assessed by bioluminescence and measured on days 6, 14, 21, 28, 35, 42, and 49), body weight (monitored 3 times per week until day 18, and then daily from day 19–55), and survival.

[4] = system: tumour-infiltrating lymphocytes in GL261(luc2) glioblastomas; assay: Immune response profiling of tumour-infiltrating lymphocytes by FACS; type: in vivo, C57BL/6J mice; conditions: day 16, AT-0174 […] mg/kg PO, TMZ 8 mg/kg IP
Description: On day 16 post-tumour inoculation, satellite animals from each experimental group were euthanized, and tumours were collected. Tumours were processed for organ dissociation using the GentleMACS system (Miltenyi Biotec) and myelin debris removal and homogenate purification through a Percoll gradient. Tumour homogenates were then processed for immunostaining and profiling analysis by flow cytometry for the lymphoid component according to a marker panel including CD45, CD3, CD4, CD8, IFNγ, CD25, and FoxP3. For IFNγ, homogenate samples were first stimulated with a cocktail of Phorbol 12-myristate 13-acetate, Ionomycin and Brefeldin A. Briefly, to assess viability, cells were stained with LIVE/DEAD Zombie NIR (Biolegend). For simultaneous detection of the intracellular molecule, after fixed, cells were permeabilized with Foxp3 transcription factor staining buffer set according to the manufacturer’s protocol (eBioscience). All flow antibodies were obtained from BioLegend.

Question: With Cn1cc(C[C@H](N)C(=O)O)c2ccccc21 [1-MT, 1-methyltryptophan] as the compound, how does the “Efficacy when given alone” value (U87 cell xenograft) read?
Answer: ineffective

Question: What about the Survival duration ([1]; TMZ in combination with 1-MT, compared to TMZ alone) of the same compound?
Answer: slight increase in the survival duration

Question: And the “Efficacy when given alone” value ([1]; orthotopic GL261 model, given alone)?
Answer: ineffective

Question: Which Survival (C6 orthotopic glioma) does the source give for Cc1ccc(NC(=O)Nc2cc(-c3ccccc3-c3nn[nH]n3)ccc2N(CC(C)C)CC(C)C)cc1 [PCC0208009] here?
Answer: improved survival

Question: And the Subcutaneous tumour growth [2]?
Answer: significantly synergised with TMZ

Question: With Cn1nnc2c(C(N)=O)ncn2c1=O [TMZ, Temozolomide] as the compound, how does the “Effect on body weight” value [3] read?
Answer: mild (though non-significant) drop in body weight

Question: And the “Cytotoxic CD8+ T cells in tumour” value ([4]; vs control)?
Answer: non-significant increase

Question: What about the “Tregs (CD4+CD25+FoxP3+ cells) in tumour” value ([4]; vs vehicle control) of the same compound?
Answer: higher

— paper PMC11267968 (BMC Cancer, 2024)
